Results taken from PMC3694003 (PLoS ONE, 2013).
Where two headings read alike, the source gives them in different places. Bridge positions count the residues as written; N and C are the ends. Ends that are not written are not given here. Peptide text beside a SMILES is read from it.

Legend:
[1] = system: purified human T-cells (CD3+); format: cell-based; conditions: cyclotides 1.8-14 µM
Procedure: (§1) Purified T-cells were obtained by CD3^+ positive selection using magnetic cell separation method according to manufacturer’s instructions (StemCell Technologies, Grenoble, France). Cells were washed twice with medium and cell viability as well as concentration was determined using the trypan blue exclusion test.
(§2) After cultivation, the cells were assessed in biological tests as described. Alternatively for IL-2 supplementation assays, lymphocytes or purified T-cells were equilibrated for 2 h at 37°C.

[2] = system: primary activated human lymphocytes (PBMCs); format: cell-based; conditions: for immunosuppressive activity: mutation in hydrophilic 'bioactive face', Table 1, Figure 2
Procedure: as §1, §2

TNF-α = TNF-α production of activated lymphocytes; format: cell-based, human; conditions: 4 µM, mean ± SD; for TNF-α production compared to control: 36 h post stimulation, intracellular cytokine flow cytometry
Procedure: (§3) Cells were treated for 24 or 36 h, respectively and were restimulated with PMA (50 ng/mL) and ionomycin (500 ng/mL) for additional 6 h. Supernatants were harvested by centrifugation and were stored at -20°C. The amount of cytokines was measured and quantified using the FlowCytomix^TM technique according to manufacturer’s instructions (eBioscience) or alternatively intracellular cytokine production was determined. For this purpose the cells were fixed and permeabilized using 4% paraformaldehyde (Sigma-Aldrich) and Perm/Wash solution (Becton Dickinson), followed by staining with PE-conjugated anti-human IFN-γ mAb or anti-human TNF-α mAb (both from eBioscience), respectively. For CD107a degranulation assay, cells were restimulated with PMA (10 or 50 ng/mL, respectively) und ionomycin (100 or 500 ng/mL, respectively) and to each well containing 200 µL of cell suspension, 5 µL (~0.25 µg) PE-conjugated anti-CD107a mAb (eBioscience) were added. After incubation at 37°C for 1 h, 2 µL of 1/10 diluted GolgiStop (Becton Dickinson) was added per well and the plates were incubated for another 2.5 h. Samples were analyzed with a BD FACSCalibur flow cytometer using BD CellQuest Pro Software.

IFN-γ = IFN-γ production of activated lymphocytes; format: cell-based, human; conditions: 4 µM, mean ± SD; for IFN-γ concentration compared to control: 24 h post stimulation, supernatant, ELISA-based, three experiments
Procedure: as §3

[3] = system: IL-2 release of purified T-cells; experiment: IL-2 secretion of purified T-cells, ELISA-based; format: cell-based, human; conditions: 4 µM; 24 h then PMA/ionomycin 6 h; relative to [V10K] kalata B1
Procedure: as §2, §3

[4] = system: Ca2+-release in human primary T-cells; experiment: Ca2+-release assay in T-cells; format: cell-based; conditions: for inhibition or delay of PMA/ionomycin-triggered Ca2+-release after pretreatment: 4 µM overnight (16 h), Fluo-4/Fura Red flow cytometry; for direct change in Ca2+-signaling: 4 µM, Fura-2 loaded T-cells, fluorometer
Procedure: Human primary T-cells (1 x 10^6/mL) were loaded with 1 µM Fura-2 and 0.02% Puronic F-127 for 30 min at 37°C. Cells were centrifuged for 5 min at 1200 rpm and resuspended in RPMI 1640 media supplemented with 10% fetal calf serum, penicillin (100 U/mL) and streptomycin (100 U/mL). 100 µL of cell suspension were transferred into a black 96-well plate with a clear flat-bottom. Briefly before analysis the fluorometer Synergy H4 (BioTek, Winooski, VT) was equilibrated to 37°C. The fluorescence time course was measured with: extinction at 340 and 380 nm, respectively, and emission at 510 nm in 30 sec intervals, while continuously shaking. […] To receive maximum Ca^2+-release, cells were stimulated with PMA (50 ng/mL) and ionomycin (500 ng/mL). For lowest Ca^2+-levels, cells remained untreated. […] (4 µM each) or left untreated over night at 37°C in a 24-well flat-bottom plate. Cells were stained for 15 min with Fluo-4 (2 µM) and Fura Red (4 µM), centrifuged at 1000 rpm for 5 min and resuspended in medium. Ca^2+-release was measured by time-dependent flow cytometry using BD FACSCalibur as described previously. Fluo-4 and Fura Red signals were detected using flow cytometric analysis. After equilibrating basal calcium levels for 60 sec, PMA (50 ng/mL) and ionomycin (500 ng/mL) were added to the preincubated T-cells. Fluorescence ratio was calculated using WEASEL 2.3 software.

[5] = system: degranulation marker LAMP-1 (CD107a); experiment: CD107a degranulation assay; format: cell-based, human; conditions: 36 h, 4 µM, mean ± SD, three experiments
Procedure: as §3

[6] = system: IL-2 surface receptor CD25; format: cell-based, human; conditions: 4 µM; for IL-2 surface receptor CD25 expression compared to stimulated lymphocytes (ctrl, 100%): mean ± SD
Procedure: as §2
Cultured cells were washed with PBS and stained with PE-labeled anti-human CD25 mAbs (eBioscience) for 15 min at 4°C. Afterwards, the cells were washed twice with PBS and resuspended and transferred into FACS vials and expression of the IL-2 surface receptor α-chain CD25 was measured by FACS analysis using a FACSCalibur instrument.

[7] = system: primary human lymphocytes; format: cell-based; conditions: for proliferation compared to control, pretreated and washed cells with exogenous IL-2 / proliferation compared to control cells, pretreated and washed cells without exogenous IL-2: 4 µM pretreatment, PHA-L 10 µg/mL, day three, mean ± SD, three experiments; for proliferation compared to control, pretreated and washed cells with exogenous IL-2: recombinant human IL-2 added
Procedure: as §2
10 µg/milliliter PHA-L for 1 h. This was followed by washing off the substances and stimuli with PBS and resuspending the cells in medium for further assays as described.

[8] = system: IL-2 release of activated lymphocytes; format: cell-based, human; conditions: 4 µM; 24 h then PMA/ionomycin 6 h; mean ± SD
Procedure: as §2, §3

il-2 mRNA = experiment: il-2 gene expression, quantitative RT-PCR; format: cell-based, human; conditions: 4 µM; lymphocytes; normalized to 18s rRNA
Procedure: Total RNA was extracted from controls or treated cells (4 x 10^6) and frozen at -80°C until further use. RNA purification was performed according to the manufacturer’s instructions for the RNeasy mini and RNAse-Free DNAse digestion kits (Qiagen, Hamburg, Germany). The quantity and purity of extracted RNA was measured by nanodrop spectrophotometry (Peqlab, Erlangen, Gemany) and purified RNA was reverse transcribed using the RT^2 First Strand Kit (Qiagen). RT-PCR reactions were carried out on a MyiQ kit (BioRad, Munich, Germany) in a final volume of 25 µL using RT² qPCR Primer Assay (for il-2) and SYBR® Green qPCR master mix (both from Qiagen). Each determination was performed in duplicate and the housekeeping gene 18s rRNA was used as an internal control. The real-time thermal cycler program comprised an initial denaturation step at 95 °C for 10 min followed by a two-step program with 40 cycles (95°C, 15 sec; and 60°C, 60 sec). The relative gene expression of il-2 has been determined by comparative cycle threshold analysis and the data were normalized to the internal housekeeping gene 18s rRNA and the relative mRNA level in the untreated group (untreated PHA-L-activated).

[9] = system: lymphocytes and purified T-cells; experiment: Cytotoxicity in proliferation experiments; format: cell-based, human; conditions: analyzed concentration range up to 14 µM
Procedure: as §2

Compound | TNF-α production compared to control (TNF-α) | IFN-γ concentration compared to control (IFN-γ) | inhibition or delay of PMA/ionomycin-triggered Ca2+-release after pretreatment [4] | direct change in Ca2+-signaling [4] | cells containing degranulation marker LAMP-1 as compared to control [5] | IL-2 surface receptor CD25 expression compared to stimulated lymphocytes (ctrl, 100%) ([6]; 24 h) | IL-2 surface receptor CD25 expression compared to stimulated lymphocytes (ctrl, 100%) ([6]; 36 h) | proliferation compared to control, pretreated and washed cells with exogenous IL-2 [7] | proliferation compared to control cells, pretreated and washed cells without exogenous IL-2 [7] | IL-2 release of T-lymphocytes compared to control cells [8] | level of il-2 mRNA compared to control (il-2 mRNA) | suppression of the proliferation of T-cells [1] | immunosuppressive activity [2] | also measured
CC(C)C[C@@H]1NC(=O)CNC(=O)[C@H](CC(N)=O)NC(=O)[C@H](CCCNC(=N)N)NC(=O)[C@H]([C@@H](C)O)NC(=O)[C@@H]2CSSC[C@@H]3NC(=O)[C@H]([C@@H](C)O)NC(=O)CNC(=O)CNC(=O)[C@H](C(C)C)NC(=O)[C@@H]4CSSC[C@H](NC(=O)[C@H](CCCCN)NC(=O)[C@H](CSSC[C@H](NC(=O)[C@H](C(C)C)NC(=O)[C@@H]5CCCN5C1=O)C(=O)NCC(=O)N[C@@H](CCC(=O)O)C(=O)N[C@@H]([C@@H](C)O)C(=O)N4)NC(=O)CNC(=O)[C@@H]1CCCN1C(=O)[C@H]([C@@H](C)O)NC(=O)[C@H](CC(N)=O)NC3=O)C(=O)N[C@@H](CO)C(=O)N[C@@H](Cc1c[nH]c3ccccc13)C(=O)N1CCC[C@H]1C(=O)N[C@@H](C(C)C)C(=O)N2 [[T20K]] (cyclo(CGETCVGGTCNTPGCKCSWPVCTRNGLPV); disulfide 1-15, 5-17, 10-22 (inferred); ring closure inferred) | did not affect | 21% ± 13 | Neither cyclotides nor CsA induced any inhibition or a delay | did not induce any change | 49% ± 17 | 79% ± 10 | 46% ± 18 | 91% ± 1.4 | 29% ± 24 | 24% ± 19 | clearly decreased |  |  | IC50 ([1]; CFSE flow cytometry, day 3, non-linear regression (fixed slope), mean ± SD, c: n=3, d: n=2, read-out: IC50 (µM) ± SD, inhibition of purified T-cell proliferation): 2.7 ± 0.6 µM; IC50 ([2]; CFSE flow cytometry, day three post stimulation, cyclotides 1.8-14 µM, non-linear regression (fixed slope), mean ± SD, a: n=7, b: n=4, c: n=3, read-out: IC50 (µM) ± SD, inhibition of lymphocyte (PBMC) proliferation): 1.9 ± 0.6 µM; TNF-α expression compared to control (TNF-α; 24 h post stimulation, supernatant, ELISA-based): 23% ± 11; IFN-γ level compared to control (IFN-γ; 36 h post stimulation, intracellular cytokine flow cytometry): no effect; IL-2 release of purified T-cells [3]: significantly decreased; restoring of normal proliferation by addition of IL-2 ([7]; peptide still present throughout the whole cultivation period (not washed off)): ineffective; cytotoxicity [9]: no signs of cytotoxicity
[T8K]: single point-mutated lysine analogue of kalata B1, position 8 (GLPVCGEKCVGGTCNTPGCTCSWPVCTRN; ends and bridges not checked; cysteine pairing not given here; UniProt P56254 89-117, looked up, variant T8K) |  |  |  |  |  |  |  |  |  |  |  | did not suppress | lost their immunosuppressive activity | IC50 (µM) ± SD, inhibition of lymphocyte (PBMC) proliferation ([2]; CFSE flow cytometry, day three post stimulation, cyclotides 1.8-14 µM, non-linear regression (fixed slope), mean ± SD, a: n=7, b: n=4, c: n=3): not active (n.a.)^b
[V10A]: single point-mutated alanine analogue of kalata B1, position 10 (cyclo(GLPVCGETCAGGTCNTPGCTCSWPVCTRN); disulfide 14-26, 5-19, 9-21; ends not checked; UniProt P56254 89-117, looked up, variant V10A) |  |  |  |  |  |  |  |  |  |  |  | did not suppress | lost their immunosuppressive activity | 
[V10K]: single point-mutated lysine analogue of kalata B1, position 10; 'inactive' mutant (GLPVCGETCKGGTCNTPGCTCSWPVCTRN; ends and bridges not checked; cysteine pairing not given here; UniProt P56254 89-117, looked up, variant V10K) | did not affect | not affected | Neither cyclotides nor CsA induced any inhibition or a delay | did not induce any change | no influence |  |  | did not have any effect | no effect | no effect |  | did not suppress | lost their immunosuppressive activity | IL-2 receptor surface level ([6]; time not given): unaffected
cyclosporin A [CsA, reference compound] |  |  | Neither cyclotides nor CsA induced any inhibition or a delay | did not induce any change | 42% ± 21 | 76% ± 11 | 62% ± 7.3 |  |  |  | clearly decreased |  |  | 
